{
  "source": "ChEMBL document CHEMBL3272131",
  "about": "“Molecular connectivity. 6. Examination of the parabolic relationship between molecular connectivity and biological activity” (J Med Chem, 1976)",
  "key": {"[1]": {"tested_on": "Staphylococcus aureus", "assay": "Antimicrobial activity against Staphylococcus aureus", "format": "functional"}, "[2]": {"tested_on": "Mycobacterium tuberculosis", "assay": "Antimicrobial activity against Mycobacterium tuberculosis", "format": "functional"}, "[3]": {"assay": "Drug absorption in intestine (unknown origin) assessed as serosal transfer", "format": "ADME, tissue-based"}, "[4]": {"assay": "Drug absorption in intestine (unknown origin) assessed as mucosal loss", "format": "ADME, tissue-based"}, "[5]": {"assay": "Drug absorption in intestine (unknown origin) assessed as tissue-bound transfer", "format": "ADME, tissue-based"}, "[6]": {"species_on_record": "Rattus norvegicus", "assay": "Induction of hypnotic activity in rat", "format": "functional"}, "[7]": {"tested_on": "Clostridium perfringens", "assay": "Antimicrobial activity against Clostridium welchii", "format": "functional"}, "[8]": {"assay": "Toxicity in sheep RBC assessed as hemolysis", "format": "cell-based, Ovis aries", "details": "erythrocyte"}, "[9]": {"tested_on": "Pseudomonas aeruginosa", "assay": "Antimicrobial activity against Pseudomonas aeruginosa", "format": "functional"}, "[10]": {"tested_on": "Mus musculus", "assay": "Induction of anesthetic activity in mouse", "format": "functional"}, "[11]": {"species_on_record": "Oryctolagus cuniculus", "assay": "Induction of hypnotic activity in rabbit", "format": "functional"}},
  "data": [
    {"smiles": "CCCCCCCCCC[N+](C)(C)Cc1ccc(Cl)cc1", "values": [
      {"measurement": "-log(1/MIC)", "setting": "[1]", "result": 3.6}
    ]},
    {"smiles": "CCOc1ccc(N)cc1", "values": [
      {"measurement": "-log(1/MIC)", "setting": "[2]", "result": 4.44}
    ]},
    {"smiles": "CCC(C)(C)OC(N)=O", "values": [
      {"measurement": "log%Abs", "setting": "[3]", "result": 0.68},
      {"measurement": "log%Abs", "setting": "[4]", "result": 0.77},
      {"measurement": "log%Abs", "setting": "[5]", "result": 0.04}
    ]},
    {"smiles": "NC(=O)OCc1ccccc1", "note": "[BENZYL CARBAMATE]", "values": [
      {"measurement": "log%Abs", "setting": "[3]", "result": 0.59},
      {"measurement": "log%Abs", "setting": "[4]", "result": 0.69},
      {"measurement": "log%Abs", "setting": "[5]", "result": 0.01}
    ]},
    {"smiles": "C=CCC1(C(C)CC)C(=O)NC(=O)NC1=O", "note": "(stereo not given) [TALBUTAL]", "values": [
      {"measurement": "-log(1/MED)", "setting": "[6]", "result": 3.78}
    ]},
    {"smiles": "CCCCCCCCCCCC[N+](C)(C)Cc1ccccc1", "note": "[BENZODODECINIUM]", "values": [
      {"measurement": "-log(1/MIC)", "setting": "[1]", "result": 5.61},
      {"measurement": "-log(1/MIC)", "setting": "[7]", "result": 4.61},
      {"measurement": "-log(1/MKC)", "setting": "[7]", "result": 4.61},
      {"measurement": "-log(1/HC50)", "setting": "[8]", "result": 3.82},
      {"measurement": "-log(1/MIC)", "setting": "[9]", "result": 3.61},
      {"measurement": "-log(1/MKC)", "setting": "[9]", "result": 3.45}
    ]},
    {"smiles": "CCCCCCCC[N+](C)(C)Cc1ccc(Cl)cc1", "values": [
      {"measurement": "-log(1/MIC)", "setting": "[1]", "result": 2.6}
    ]},
    {"smiles": "CCCCCOc1ncccc1N", "values": [
      {"measurement": "-log(1/MIC)", "setting": "[2]", "result": 5.76}
    ]},
    {"smiles": "CC(C)(C)CC1(C)C(=O)NC(=O)NC1=O", "values": [
      {"measurement": "-log(1/AD50)", "setting": "[10]", "result": 2.12}
    ]},
    {"smiles": "CCCCCCOc1ccc(N)cc1", "values": [
      {"measurement": "-log(1/MIC)", "setting": "[2]", "result": 5.8}
    ]},
    {"smiles": "C=CCC1(C(C)C(C)(C)C)C(=O)NC(=O)NC1=O", "note": "(stereo not given)", "values": [
      {"measurement": "-log(1/AD50)", "setting": "[10]", "result": 3.39}
    ]},
    {"smiles": "CCCCC1(C(C)C)C(=O)NC(=O)NC1=O", "values": [
      {"measurement": "-log(1/MED)", "setting": "[6]", "result": 3.49}
    ]},
    {"smiles": "CCCCOC(N)=O", "values": [
      {"measurement": "log%Abs", "setting": "[3]", "result": 0.82},
      {"measurement": "log%Abs", "setting": "[4]", "result": 0.9},
      {"measurement": "log%Abs", "setting": "[5]", "result": 0.1}
    ]},
    {"smiles": "C=CCC1(CCCC)C(=O)NC(=O)NC1=O", "values": [
      {"measurement": "-log(1/MED)", "setting": "[6]", "result": 3.47}
    ]},
    {"smiles": "CCC1(C(C)C(C)(C)C)C(=O)NC(=O)NC1=O", "note": "(stereo not given)", "values": [
      {"measurement": "-log(1/AD50)", "setting": "[10]", "result": 3.15}
    ]},
    {"smiles": "CCCCCCCCCCCCCC[N+](C)(C)Cc1ccccc1", "note": "[MIRISTALKONIUM ION]", "values": [
      {"measurement": "-log(1/MIC)", "setting": "[1]", "result": 5.82},
      {"measurement": "-log(1/MIC)", "setting": "[7]", "result": 5.12},
      {"measurement": "-log(1/MKC)", "setting": "[7]", "result": 5.12},
      {"measurement": "-log(1/HC50)", "setting": "[8]", "result": 4.4},
      {"measurement": "-log(1/MIC)", "setting": "[9]", "result": 3.65},
      {"measurement": "-log(1/MKC)", "setting": "[9]", "result": 3.96}
    ]},
    {"smiles": "CCCC1(CCC)C(=O)NC(=O)NC1=O", "values": [
      {"measurement": "-log(1/MED)", "setting": "[11]", "result": 3.55}
    ]},
    {"smiles": "CCCCCCCCCCOc1ncccc1N", "values": [
      {"measurement": "-log(1/MIC)", "setting": "[2]", "result": 3.19}
    ]},
    {"smiles": "CCC1(CC(C)(C)C)C(=O)NC(=O)NC1=O", "values": [
      {"measurement": "-log(1/AD50)", "setting": "[10]", "result": 2.91}
    ]},
    {"smiles": "CCCCCCCCOc1ccc(N)cc1", "values": [
      {"measurement": "-log(1/MIC)", "setting": "[2]", "result": 3.44}
    ]},
    {"smiles": "CC(C(C)(C)C)C1(C)C(=O)NC(=O)NC1=O", "note": "(stereo not given)", "values": [
      {"measurement": "-log(1/AD50)", "setting": "[10]", "result": 2.64}
    ]},
    {"smiles": "CCOc1ncccc1N", "values": [
      {"measurement": "-log(1/MIC)", "setting": "[2]", "result": 3.54}
    ]},
    {"smiles": "CCC1(CC(C)C)C(=O)NC(=O)NC1=O", "values": [
      {"measurement": "-log(1/MED)", "setting": "[11]", "result": 3.63}
    ]},
    {"smiles": "CCCCCCOc1ccncc1N", "values": [
      {"measurement": "-log(1/MIC)", "setting": "[2]", "result": 5.8}
    ]},
    {"smiles": "CCCCC1(CC(C)(C)C)C(=O)NC(=O)NC1=O", "values": [
      {"measurement": "-log(1/AD50)", "setting": "[10]", "result": 3.33}
    ]},
    {"smiles": "CCCCOc1ccc(N)c2ccccc12", "values": [
      {"measurement": "-log(1/MIC)", "setting": "[2]", "result": 4.03}
    ]},
    {"smiles": "CCCCCCCCOC(N)=O", "values": [
      {"measurement": "log%Abs", "setting": "[3]", "result": -0.43},
      {"measurement": "log%Abs", "setting": "[4]", "result": -0.19},
      {"measurement": "log%Abs", "setting": "[5]", "result": -0.57}
    ]},
    {"smiles": "CC(C)CC1(CC(C)(C)C)C(=O)NC(=O)NC1=O", "values": [
      {"measurement": "-log(1/AD50)", "setting": "[10]", "result": 3.27}
    ]},
    {"smiles": "CCC1(c2ccccc2)C(=O)NC(=O)NC1=O", "note": "[PHENOBARBITAL]", "values": [
      {"measurement": "-log(1/MED)", "setting": "[11]", "result": 3.46}
    ]},
    {"smiles": "CCCC1(C(C)C)C(=O)NC(=O)NC1=O", "values": [
      {"measurement": "-log(1/MED)", "setting": "[11]", "result": 3.63}
    ]},
    {"smiles": "CCCCOc1ccc(N)cc1", "values": [
      {"measurement": "-log(1/MIC)", "setting": "[2]", "result": 5.42}
    ]},
    {"smiles": "CCC1(C(C)C)C(=O)NC(=O)NC1=O", "note": "[PROBARBITAL]", "values": [
      {"measurement": "-log(1/MED)", "setting": "[6]", "result": 3.34},
      {"measurement": "-log(1/MED)", "setting": "[11]", "result": 3.3}
    ]},
    {"smiles": "CCCCOc1ccc(N)cn1", "values": [
      {"measurement": "-log(1/MIC)", "setting": "[2]", "result": 5.13}
    ]},
    {"smiles": "CC(C)COc1ncccc1N", "values": [
      {"measurement": "-log(1/MIC)", "setting": "[2]", "result": 4.52}
    ]},
    {"smiles": "COc1ccc(N)cc1", "values": [
      {"measurement": "-log(1/MIC)", "setting": "[2]", "result": 3.39}
    ]},
    {"smiles": "C=CCC1(CC=C)C(=O)NC(=O)NC1=O", "note": "[ALLOBARBITAL]", "values": [
      {"measurement": "-log(1/MED)", "setting": "[6]", "result": 3.54}
    ]},
    {"smiles": "CCCCC1(CC)C(=O)NC(=O)NC1=O", "note": "[BUTETHAL]", "values": [
      {"measurement": "-log(1/MED)", "setting": "[6]", "result": 3.53}
    ]},
    {"smiles": "CCCCCCCCCCC[N+](C)(C)Cc1ccccc1", "values": [
      {"measurement": "-log(1/MIC)", "setting": "[1]", "result": 5.06},
      {"measurement": "-log(1/MIC)", "setting": "[7]", "result": 4.06},
      {"measurement": "-log(1/MKC)", "setting": "[7]", "result": 4.06},
      {"measurement": "-log(1/MIC)", "setting": "[9]", "result": 3.06},
      {"measurement": "-log(1/MKC)", "setting": "[9]", "result": 2.92}
    ]},
    {"smiles": "CC(C)(C)OC(N)=O", "values": [
      {"measurement": "log%Abs", "setting": "[3]", "result": 0.65},
      {"measurement": "log%Abs", "setting": "[4]", "result": 0.73},
      {"measurement": "log%Abs", "setting": "[5]", "result": 0}
    ]},
    {"smiles": "CCCCCCCOc1ncccc1N", "values": [
      {"measurement": "-log(1/MIC)", "setting": "[2]", "result": 4.62}
    ]}
  ]
}
